Experimental data reported in patent US9381173B2, “Isolated stereoisomeric forms of (S)2-N(3-O-(propan 2-Ol)-1-propyl-4-hydroxybenzene)-3-phenylpropylamide” (Novaremed Ltd., priority 2011, dated 2016).

Legend:
BLK = BLK (Homo sapiens, UniProt P51451); assay: BLK mobility-shift kinase assay (Caliper LabChip 3000); format: biochemical; conditions: 5 concentrations, duplicate wells; listed as (S,S) enantiomer
Experimental: (§1) Each compound and concentration was tested in duplicate wells.
(§2) Data points are the averages of duplicate wells. Error bars represent the mean±replicate % activity.

[1] = system: spinal nerve ligation (SNL or Chung) model for neuropathic pain in rats; assay: Spinal nerve ligation (Chung) model, Von Frey test for mechanical allodynia; format: in vivo; conditions: for delta force right minus left leg, Day 14 Pretreatment / mean Von Frey force, left operated leg, Day 14 Pretreatment: before first dose; for difference (delta) force between right healthy leg and left operated leg, Baseline: before operation; for mean Von Frey force required for withdrawal of the left operated leg, Baseline: day -1, before operation
Experimental: The antinociceptive and analgesic activity of E1 in a spinal nerve ligation (SNL or Chung) model for neuropathic pain in rats was evaluated.
On study day 0, all animals underwent Chung surgery, which consisted of an operation where the left L5-L6 spinal nerves were isolated and cut. Fourteen days post surgery the animals were selected using pain threshold results from the Von Frey test. Only animals that indicated signs of mechanical allodynia were included in the study. After the selection process, the animals were grouped and Test Items were administered via IP. The pain response was measured using Von Frey methodology at 2, 5 and 24 hours after Test Item administration on study day 14, and at 2, 5, 24 and 48 hours on study day 21 after 7 days of Test Item administration.
Species: 50 SD young adult male rats, 225-260 g at study initiation (Harlan Laboratories, Israel. Ltd.)
Neuropathic Pain Induction: While under anesthesia using ketamine/xylazine sodium and after the area was shaved, the rat was placed in a prone position and the left paraspinal muscles were separated from the spinous process at the L4-S2 levels. The L6 vertebral transverse process was carefully removed with a small rongeur to visually identify the L5-L6 spinal nerves. The left L5-L6 spinal nerves were cut. The muscle was then closed with 4-0 silk sutures and the skin was closed by a clamp. Following surgery, the rats were returned to the cage and remained under a heating lamp until they awoke.
Inclusion/Exclusion Criteria for Pre-Selection: On post-operative day 14, animals were tested for mechanical allodynia using Von Frey methodology prior to being placed in their experimental groups. Only animals with a pain threshold of ≦26 g for the operated leg were included in the study. In order to form homogenous treatment groups and to adhere to randomization, all the operated rats were grouped according to inclusion/exclusion criteria.
The Von Frey test was performed prior to Test Items' administrations (pre-TI injection) and at 2 and 5 hours after TI administration (post-TI injection) on study days 14 and 21.
Von Frey test was performed prior to TI's administration on study day 15 (24 hours post-TI's administration on study day 14) and on study days 22 and 23 (24 and 48 hours respectively post-TI's administration on study day 21).
Pain Response Evaluation: Pain response was evaluated using Von Frey test for mechanical allodynia.
The Von Frey test for mechanical allodynia is based on applying short pulses of pressure that are not painful to a naive animal. In fact, in order to achieve paw withdrawal from a naive animal, the pressure applied is sometimes higher than 60 g. This often requires the researcher to apply enough pressure with the Von Frey filament to actually lift the paw of the naive animal. However, in disease conditions, the animals are sensitive to much lower pressure and experience pain as a result of a normally non-painful stimulus.
Mechanical Allodynia Evaluation (Von Frey Testing): Allodynic response to tactile stimulation was assessed using the Von Frey apparatus (Touch®).
The rats were placed in an enclosure and positioned on a metal mesh surface, but allowed to move freely. The rats' cabins were covered with red cellophane to diminish environmental disturbances. The test began after cessation of exploratory behavior. The set of Von Frey monofilaments provide an approximate logarithmic scale of actual force and a linear scale of perceived intensity as provided by the manufacturer of the Von Frey apparatus (Ugo Basil). The operating principle: When the tip of a fiber of given length and diameter is pressed against the skin at right angles, the force of application increases as long as the researcher continues to advance the probe until the fiber bends. After the fiber bends, the probe continues to advance, causing the fiber to bend more, but without additional force being applied to the paw. […]

Lyn A = Lyn A (Homo sapiens, UniProt P07948); assay: Lyn A mobility-shift kinase assay (Caliper LabChip 3000); format: biochemical; conditions: 5 concentrations, duplicate wells; listed as (S,S) enantiomer
Lyn A, sequence (P07948 whole entry, species assumed): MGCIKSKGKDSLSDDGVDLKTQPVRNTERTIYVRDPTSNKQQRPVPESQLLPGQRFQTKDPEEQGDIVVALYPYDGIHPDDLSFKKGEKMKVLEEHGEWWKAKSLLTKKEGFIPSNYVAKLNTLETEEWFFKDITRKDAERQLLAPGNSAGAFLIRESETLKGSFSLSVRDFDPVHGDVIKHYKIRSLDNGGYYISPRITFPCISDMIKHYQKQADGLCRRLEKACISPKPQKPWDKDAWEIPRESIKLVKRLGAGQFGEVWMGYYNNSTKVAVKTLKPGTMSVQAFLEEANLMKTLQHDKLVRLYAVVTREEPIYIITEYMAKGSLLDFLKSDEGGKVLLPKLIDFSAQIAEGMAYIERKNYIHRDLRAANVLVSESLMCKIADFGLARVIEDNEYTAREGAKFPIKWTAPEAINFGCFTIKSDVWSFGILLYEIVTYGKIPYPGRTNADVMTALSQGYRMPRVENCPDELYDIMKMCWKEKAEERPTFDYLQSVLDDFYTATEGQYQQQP
Experimental: as §1, §2

[2] = Body weight in the Chung model study; format: in vivo, rats; conditions: for Mean group body weight Day 14: before first administration; for Mean group body weight Day 7: before treatment; for Mean group body weight Baseline: study day -1, before surgery and treatment
Experimental: Body Weights: Body weight was measured at regular intervals on study days −1 for baseline values and seven days after the surgery (study day 7).

[3] = 7.5 mg/kg IP, day 14, 2, 5 and 24 hours
[4] = 7.5 mg/kg IP, study day 14, 2, 5 and 24 hours
[5] = 15 mg/kg IP once daily day 14-21 (group 4)
[6] = 15 mg/kg IP, day 14, 5 and 24 hours
[7] = 15 mg/kg IP, study day 14, 5 and 24 hours
[8] = 30 mg/kg IP once daily day 14-21 (group 3)
[9] = 30 mg/kg IP once daily from day 14 (group 3)
[10] = 30 mg/kg IP, day 21, 2, 5 and 24 hours

BLK, sequence (P51451 whole entry, species assumed): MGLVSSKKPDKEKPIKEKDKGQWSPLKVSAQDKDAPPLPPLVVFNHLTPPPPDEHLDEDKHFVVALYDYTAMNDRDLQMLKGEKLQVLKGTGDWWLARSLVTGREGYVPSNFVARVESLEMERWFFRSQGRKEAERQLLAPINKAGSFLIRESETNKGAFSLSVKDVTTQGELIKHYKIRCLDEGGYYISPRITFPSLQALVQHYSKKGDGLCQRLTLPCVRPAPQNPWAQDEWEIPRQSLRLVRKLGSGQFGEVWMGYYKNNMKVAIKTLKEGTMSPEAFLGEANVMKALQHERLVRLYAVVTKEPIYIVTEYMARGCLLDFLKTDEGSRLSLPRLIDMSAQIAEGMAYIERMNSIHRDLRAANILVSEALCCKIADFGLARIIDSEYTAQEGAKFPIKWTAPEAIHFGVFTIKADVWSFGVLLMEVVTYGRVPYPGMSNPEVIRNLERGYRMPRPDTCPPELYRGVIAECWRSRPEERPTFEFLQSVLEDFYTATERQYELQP

CC(O)COCC(Cc1ccc(O)cc1)NC(=O)CCc1ccccc1 (single isomer, unassigned) [E1]
modulation of BLK tyrosine kinase activity (BLK): activated | delta force right minus left leg, Day 14 Pretreatment ([1]; 7.5 mg/kg IP (group 5)): 50.10 ± 0.64 g | mean Von Frey force, left operated leg, Day 14 Pretreatment ([1]; 7.5 mg/kg IP (group 5)): 9.90 ± 0.64 g | difference (delta) force between right healthy leg and left operated leg, Baseline ([1]; 7.5 mg/kg IP (group 5)): 0.00 ± 0.00 g | mean Von Frey force required for withdrawal of the left operated leg, Baseline ([1]; 7.5 mg/kg IP (group 5)): 56.60 ± 3.40 g | inhibition of allodynia compared to the pretreatment value of delta withdrawal force [1, 3]: inhibited allodynia | pain relief activity, delta withdrawal force between the two legs vs. Vehicle [1, 3]: significant pain relief activity | inhibition of allodynia compared to the pretreatment value of delta withdrawal force ([1]; 7.5 mg/kg IP, day 21, 5 hours): inhibited allodynia | pain relief activity, delta withdrawal force between the two legs vs. Vehicle ([1]; 7.5 mg/kg IP, day 21 pretreatment, 2, 5, 24 and 48 hours): significant pain relief activity | inhibition of allodynia (Von Frey) compared to the Vehicle control [1, 4]: effectively inhibited allodynia | inhibition of allodynia (Von Frey) compared to the pretreatment value [1, 4]: inhibited allodynia | inhibition of allodynia (Von Frey) compared to the pretreatment value ([1]; 7.5 mg/kg IP, study day 21, 5 hours): inhibited allodynia | inhibition of allodynia (Von Frey) compared to the Vehicle control ([1]; 7.5 mg/kg IP, study day 21 pretreatment and 2, 5, 24 and 48 hours): inhibited allodynia | conclusion: pain analgesic item, parameters of mechanical allodynia ([1]; 7.5 mg/kg, 2, 5 and 24 hours day 14, 2, 5, 24 and 48 hours day 21): effective | delta force right minus left leg, Day 14 Post-treatment 2 hours ([1]; 15 mg/kg IP (group 4)): 48.20 ± 5.67 g | delta force right minus left leg, Day 14 Post-treatment 5 hours ([1]; 15 mg/kg IP (group 4)): 29.20 ± 6.66 g | mean Von Frey force, left operated leg, Day 14 Post-treatment 2 hours ([1]; 15 mg/kg IP (group 4)): 11.80 ± 5.67 g | delta force right minus left leg, Day 14 Pretreatment ([1]; 15 mg/kg IP (group 4)): 50.20 ± 0.90 g | mean Von Frey force, left operated leg, Day 14 Pretreatment ([1]; 15 mg/kg IP (group 4)): 9.80 ± 0.90 g | difference (delta) force between right healthy leg and left operated leg, Baseline ([1]; 15 mg/kg IP (group 4)): 0.00 ± 0.00 g | mean Von Frey force required for withdrawal of the left operated leg, Baseline ([1]; 15 mg/kg IP (group 4)): 56.60 ± 3.40 g | delta force right minus left leg, Day 21 Post-treatment 48 hours [1, 5]: 39.80 ± 4.80 g | mean Von Frey force, left operated leg, Day 21 Post-treatment 48 hours [1, 5]: 20.20 ± 4.80 g | inhibition of allodynia compared to the pretreatment value of delta withdrawal force [1, 6]: inhibited allodynia | pain relief activity, delta withdrawal force between the two legs vs. Vehicle [1, 6]: significant pain relief activity | pain relief activity, delta withdrawal force between the two legs vs. Vehicle ([1]; 15 mg/kg IP, day 21 pretreatment, 2, 5 and 24 hours): significant pain relief activity | inhibition of allodynia (Von Frey) compared to the Vehicle control [1, 7]: inhibited allodynia | inhibition of allodynia (Von Frey) compared to the pretreatment value [1, 7]: inhibited allodynia | inhibition of allodynia (Von Frey) compared to the Vehicle control ([1]; 15 mg/kg IP, study day 14, 2 hours): did not inhibit allodynia | inhibition of allodynia (Von Frey) compared to the Vehicle control ([1]; 15 mg/kg IP, study day 21, 48 hours): less effective | inhibition of allodynia (Von Frey) compared to the Vehicle control ([1]; 15 mg/kg IP, study day 21 pretreatment, 2, 5 and 24 hours): inhibited allodynia | conclusion: pain analgesic item, parameters of mechanical allodynia ([1]; 15 mg/kg, 5 and 24 hours day 14, 2, 5 and 24 hours day 21): effective | delta force right minus left leg, Day 14 Post-treatment 2 hours ([1]; 30 mg/kg IP (group 3)): 46.80 ± 1.70 g | delta force right minus left leg, Day 14 Post-treatment 24 hours ([1]; 30 mg/kg IP (group 3)): 34.80 ± 6.25 g | mean Von Frey force, left operated leg, Day 14 Post-treatment 2 hours ([1]; 30 mg/kg IP (group 3)): 13.20 ± 1.70 g | mean Von Frey force, left operated leg, Day 14 Post-treatment 5 hours ([1]; 30 mg/kg IP (group 3)): 30.60 ± 5.10 g | delta force right minus left leg, Day 14 Pretreatment ([1]; 30 mg/kg IP (group 3)): 49.50 ± 1.06 g | mean Von Frey force, left operated leg, Day 14 Pretreatment ([1]; 30 mg/kg IP (group 3)): 10.50 ± 1.06 g | difference (delta) force between right healthy leg and left operated leg, Baseline ([1]; 30 mg/kg IP (group 3)): 0.00 ± 0.00 g | mean Von Frey force required for withdrawal of the left operated leg, Baseline ([1]; 30 mg/kg IP (group 3)): 60.00 ± 0.00 g | delta force right minus left leg, Day 21 Post-treatment 48 hours [1, 8]: 51.10 ± 0.82 g | mean Von Frey force, left operated leg, Day 21 Post-treatment 2 hours [1, 8]: 19.40 ± 1.80 g | mean Von Frey force, left operated leg, Day 21 Post-treatment 5 hours [1, 8]: 22.90 ± 4.64 g | mean Von Frey force, left operated leg, Day 21 Post-treatment 24 hours [1, 8]: 17.50 ± 2.48 g | mean Von Frey force, left operated leg, Day 21 Post-treatment 48 hours [1, 8]: 8.90 ± 0.82 g | delta force right minus left leg, Day 21 Pretreatment [1, 9]: 47.00 ± 1.76 g | mean Von Frey force, left operated leg, Day 21 Pretreatment [1, 9]: 13.00 ± 1.76 g | inhibition of allodynia compared to the pretreatment value of delta withdrawal force ([1]; 30 mg/kg IP, day 14, 5 hours): inhibited allodynia | pain relief activity, delta withdrawal force between the two legs vs. Vehicle ([1]; 30 mg/kg IP, day 14, 5 hours): significant pain relief activity | inhibition of allodynia compared to the pretreatment value of delta withdrawal force [1, 10]: inhibited allodynia | pain relief activity, delta withdrawal force between the two legs vs. Vehicle [1, 10]: significant pain relief activity | inhibition of allodynia (Von Frey) compared to the pretreatment value ([1]; 30 mg/kg IP, study day 14, 5 hours): inhibited allodynia | inhibition of allodynia (Von Frey) compared to the pretreatment value ([1]; 30 mg/kg IP, study day 21, 2, 5 and 24 hours): inhibited allodynia | conclusion: pain analgesic item, parameters of mechanical allodynia ([1]; 30 mg/kg, at 5 post administration day 14, 2, 5 and 24 hours day 21): effective | duration of analgesic effect post administration ([1]; summary statement): more than 24 hours | behaviour of the operated paw on the Von Frey apparatus ([1]; treated animals): laid completely the operated paw on the metal mesh surface | modulation of LynA tyrosine kinase activity (Lyn A): activated | Mean group body weight Day 14 ([2]; 7.5 mg/kg IP (group 5)): 287.60 ± 5.14 g | Mean group body weight Day 7 ([2]; 7.5 mg/kg IP (group 5)): 258.90 ± 4.41 g | Mean group body weight Baseline ([2]; 7.5 mg/kg IP (group 5)): 245.80 ± 2.54 g | Mean group body weight Day 21 ([2]; 7.5 mg/kg IP once daily from day 14 (group 5)): 303.80 ± 6.26 g | Mean group body weight Day 14 ([2]; 15 mg/kg IP (group 4)): 289.80 ± 3.27 g | Mean group body weight Day 7 ([2]; 15 mg/kg IP (group 4)): 259.20 ± 3.29 g | Mean group body weight Baseline ([2]; 15 mg/kg IP (group 4)): 245.00 ± 2.80 g | Mean group body weight Day 21 ([2]; 15 mg/kg IP once daily from day 14 (group 4)): 298.50 ± 3.27 g | Mean group body weight Day 14 ([2]; 30 mg/kg IP (group 3)): 288.70 ± 5.51 g | Mean group body weight Day 7 ([2]; 30 mg/kg IP (group 3)): 261.20 ± 4.45 g | Mean group body weight Baseline ([2]; 30 mg/kg IP (group 3)): 245.20 ± 3.19 g | Mean group body weight Day 21 [2, 9]: 303.30 ± 6.01 g
